Results reported in patent publication EP1219631A1, “ANTIANDROGEN AGENTS” (CHUGAI SEIYAKU KABUSHIKI KAISHA, priority 1999, dated 2001).

Tests used:
human androgen receptor [1] = biological target: T1, human androgen receptor (Homo sapiens, UniProt P10275); assay: Androgen receptor reporter gene assay, agonist action (MMTV-Luc, pSG5-hAR and Renilla Luc vectors transfected into HeLa cells, dual-luciferase); format: cell-based; conditions: for FI5 value: concentration showing a transcriptional activity five times that without compound, tested at 1, 10, 100, 1000 and 10000 nmol/L
T1 construct: expressed in transfected cells; host or cells: HeLa cells
T1 sequence (P10275 1-920): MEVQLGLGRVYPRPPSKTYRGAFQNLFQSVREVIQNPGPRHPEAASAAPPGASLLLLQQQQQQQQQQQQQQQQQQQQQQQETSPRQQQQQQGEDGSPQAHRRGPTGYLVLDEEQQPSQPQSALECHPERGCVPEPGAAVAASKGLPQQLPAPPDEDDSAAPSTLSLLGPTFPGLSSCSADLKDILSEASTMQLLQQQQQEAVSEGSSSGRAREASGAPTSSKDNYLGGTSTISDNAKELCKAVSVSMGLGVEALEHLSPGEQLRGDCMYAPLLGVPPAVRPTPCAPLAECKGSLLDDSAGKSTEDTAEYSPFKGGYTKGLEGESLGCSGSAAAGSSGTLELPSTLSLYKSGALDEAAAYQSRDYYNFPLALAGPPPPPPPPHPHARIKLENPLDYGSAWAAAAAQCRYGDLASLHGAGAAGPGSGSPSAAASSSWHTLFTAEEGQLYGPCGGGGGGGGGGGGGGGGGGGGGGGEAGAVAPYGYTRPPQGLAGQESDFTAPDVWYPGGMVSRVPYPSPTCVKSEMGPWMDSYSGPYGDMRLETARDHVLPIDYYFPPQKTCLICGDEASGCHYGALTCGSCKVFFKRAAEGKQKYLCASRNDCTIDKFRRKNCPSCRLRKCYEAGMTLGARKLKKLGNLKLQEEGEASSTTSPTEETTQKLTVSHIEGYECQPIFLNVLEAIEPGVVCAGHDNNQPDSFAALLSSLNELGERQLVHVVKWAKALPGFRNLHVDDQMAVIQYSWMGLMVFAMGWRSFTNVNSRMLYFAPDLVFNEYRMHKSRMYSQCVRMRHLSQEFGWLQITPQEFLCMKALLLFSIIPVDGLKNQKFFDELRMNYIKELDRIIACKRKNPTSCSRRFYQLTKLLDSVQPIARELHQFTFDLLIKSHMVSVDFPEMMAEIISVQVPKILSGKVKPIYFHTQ
Source text: Speaking of the substance of the invention which acts as antagonist against but not as agonist for the androgen receptor, the expression "not acting as agonist" means that in the following androgen receptor gene assay, the transcriptional activity value of the substance at any concentration of 0.1 nmol/L - 10 µmol/L is from one to five times the transcriptional activity value for no addition of the substance which is taken as unity:
Twenty-four hours before transfection, 1.0 x 10^5 HeLa cells (purchased from Dainippon Pharmaceutical Co., Ltd.) are cultured in phenol red free Dulbecco's modified Eagle medium (DMEM) containing 5% of charcoal-treated FBS (DCC-FBS) in 12-well microplates. Five hundred nanograms/well of MMTV-Luc vector (the reporter plasmid of luciferase having mouse tumor long terminal repeats containing the androgen response element: GM-CAT vector (A.T.C.C. No. 67282) purchased from A.T.C.C. provided that the chloramphenicol acetyl transferase gene was replaced by the firefly luciferase gene), 100 ng/well of pSG5-hAR (the expression vector of the human androgen receptor which harbors the androgen receptor gene under the control of SV40 promoter) and 5 ng/well of Renilla Luc vector (a vector for internal standard incorporating the sea pansy luciferase gene) are transfected into the HeLa cells. The transfection is performed in a liquid culture of the phenol red free DMEM using […] of lipofectoamine (GibcoBRL). Nine hours after the transfection, the liquid culture is replaced by phenol red free DMEM/3% DCC-FBS containing 10 µmol/L of a compound of the invention which is represented by the general formula (I) or the substance of the invention which acts as antagonist against but not as agonist for the androgen receptor. The transcriptional activity value is measured 48 hours after the replacement of the liquid culture. Transcriptional activity is measured with a dual-luciferase reporter assay system (Promega). The transcriptional activity value is defined as the value for firefly luciferase divided by the value for sea pansy luciferase. […] 270, pp. 19998-20003, 1995.
(§1) Twenty-four hours before transfection, 1.0 x 10^5 HeLa cells were cultured in phenol red free DMEM/5% DCC-FBS on 12-well microplates. Five hundred nanograms/well of MMTV-Luc vector, 100 ng/well of pSG5-hAR and 5 ng/well of Renilla Luc vector were transfected into the HeLa cells. The transfection was performed in a liquid culture of the phenol red free DMEM using […] of lipofectoamine. […] The transcriptional activity value was measured 48 hours after the replacement of the liquid culture. Transcriptional activity was measured with a dual-luciferase reporter assay system. The transcriptional activity value was calculated as the value for firefly luciferase divided by the value for sea pansy luciferase.
The compound was added at concentrations of 1, 10, 100, 1000 and 10000 nmol/L. Agonist activity = Transcriptional activity when the compound was added/Transcriptional activity when the compound was not added [formula]

[2] = prostate cancer patients under flutamide treatment; cited from earlier work
human androgen receptor [3] = biological target: T1, human androgen receptor; assay: Androgen receptor reporter gene assay, antagonist action against DHT (MMTV-Luc, pSG5/hAR and Renilla Luc vectors transfected into HeLa cells, dual-luciferase); format: cell-based
Procedure: The expression "acting as antagonist" means that in the following androgen receptor gene assay, the transcriptional activity value of 0.1 nmol/L of dihydrotestosterone (DHT) is inhibited to 0 - 50% at any concentration of 0.1 nmol/L - 10 µmol/L:
Twenty-four hours before transfection, 1.0 x 10^5 HeLa cells are cultured in phenol red free DMEM/5% DCC-FBS on 12-well microplates. Five hundred nanograms/well of MMTV-Luc vector, 100 ng/well of pSG5/hAR and 5 ng/well of Renilla Luc vector are transfected into the HeLa cells. The transfection is performed in a liquid culture of the phenol red free DMEM using […] of lipofectoamine. Nine hours after the transfection, the liquid culture is replaced by phenol red free DMEM/3% DCC-FBS containing 0.1 nmol/L of DHT and […] of a compound of the invention which is represented by the general formula (I) or the substance of the invention which acts as antagonist against but not as agonist for the androgen receptor. The transcriptional activity value is measured 48 hours after the replacement of the liquid culture. Transcriptional activity is measured with a dual-luciferase reporter assay system. The transcriptional activity value is defined as the value for firefly luciferase divided by the value for sea pansy luciferase. […] 270, pp. 19998-20003, 1995.
as §1, with “pSG5/hAR” for “pSG5-hAR”
The compound was added at concentrations of 1, 10, 100, 1000 and 10000 nmol/L and at each of these concentrations, measurement was done in the presence of DHT (0.1 nmol/L). Antagonist activity = Transcriptional activity when the compound was added/Transcriptional activity when the compound was not added x 100 [formula]

androgen receptor = androgen receptor (Homo sapiens, UniProt P10275); conditions: cited from earlier work
castrated rats = conditions: two-week continuous administration; cited from earlier work

CC(C)(O)C(=O)Nc1ccc([N+](=O)[O-])c(C(F)(F)F)c1 [Hydroxyflutamide, hydroxyflutamide]
acting as agonist (human androgen receptor [1]; at a concentration of 10 µmol/L): act as agonist
FI5 value (human androgen receptor [1]): 1000 nM
agonist action for the androgen receptor mediated transcriptional activity (human androgen receptor [1]; summary of the results of Example 180): exhibit agonist action
Plasma levels [2]: several
transcriptional activity value of DHT (human androgen receptor [3]; text of Example 2, with 0.1 nmol/L of DHT, HeLa cells, 48 hours): less than 50%
transcriptional activity of the androgen receptor (androgen receptor): elevated

CC(=O)O[C@]1(C(C)=O)CC[C@H]2[C@@H]3C=C(Cl)C4=CC(=O)[C@@H]5C[C@@H]5[C@]4(C)[C@H]3CC[C@@]21C [cyproterone acetate]
prostate weight (castrated rats): increased

CC(=O)O[C@]1(C(C)=O)CC[C@H]2[C@@H]3C=C(Cl)C4=CC(=O)CC[C@]4(C)[C@H]3CC[C@@]21C [chlormadinone acetate]
prostate weight (castrated rats): increased

CNC(=O)CCCOc1cccc(CCC[C@@H]2C[C@H]3CC(=O)CC[C@]3(C)[C@H]3CC[C@]4(C)[C@@H](O)CC[C@H]4[C@H]23)c1 (stereo in doubt) [Example 164, 17β-hydroxy-7α-[3-[3-{3-(N-methylaminocarbonyl)propoxy}phenyl]propyl]-5α-androstan-3-one]
FI5 value (human androgen receptor [1]): ND (even when the compound was added at a concentration of 10000 nM, the transcriptional activity of the compound-treated group was less than 5 times the transcriptional activity of the control group, making it impossible to compute the FI5 value)
IC50 (human androgen receptor [3]): 291 nM
